Here are results for one cell line from the supplement of paper PMC10307832.

Holding throughout (assay): relative viability (nuclei count vs DMSO), 5 days (fraction); higher = more cells survive
Compound in assay [1]: O=C(C[C@H]1NCCC[C@@H]1O)Cn1cnc2cc(Br)c(Cl)cc2c1=O (racemic) [Halofuginone] + Nc1nc2[nH]cc(CCc3ccc(C(=O)N[C@@H](CCC(=O)O)C(=O)O)cc3)c2c(=O)[nH]1 [Pemetrexed] (partner 0.2 µM)
The method, boiled down:
(§1)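 Relative viability divides the nuclei count in treated wells by that in vehicle wells. Lung cancer cell lines were seeded in 1536-well plates, dosed by pin tool the next day, and fixed and stained after 5 days in one step with final 0.05% Triton X-100, 1% formaldehyde and 1 ug/ml Hoechst. Dosing was a single drug or a fixed anchor-drug dose plus five library-drug doses (not always all listed) in √10 steps, and values are medians of duplicate plates imaged at 4×.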

Compound in assay [2]: O=C(C[C@H]1NCCC[C@@H]1O)Cn1cnc2cc(Br)c(Cl)cc2c1=O (racemic) [Halofuginone] + CC1(C)CCC(c2ccc(Cl)cc2)=C(CN2CCN(c3ccc(C(=O)NS(=O)(=O)c4ccc(N[C@H](CCN5CCOCC5)CSc5ccccc5)c(S(=O)(=O)C(F)(F)F)c4)cc3)CC2)C1 [Navitoclax] (partner 0.5 µM)
The method, boiled down: as §1

Compound in assay [3]: O=C(C[C@H]1NCCC[C@@H]1O)Cn1cnc2cc(Br)c(Cl)cc2c1=O (racemic) [Halofuginone] + C[C@@H](Oc1cc(-c2cnn(C3CCNCC3)c2)cnc1N)c1c(Cl)ccc(F)c1Cl [Crizotinib] (partner 1 µM)
The method, boiled down:
as §1

Compound in assay [4]: Nc1ncn([C@H]2C[C@H](O)[C@@H](CO)O2)c(=O)n1 [Decitabine] + CCNC(=O)c1noc(-c2cc(C(C)C)c(O)cc2O)c1-c1ccc(CN2CCOCC2)cc1 [Luminespib] (partner 0.01 µM)
In short, it runs like this: as §1

Turning to UMC-11, the relative viability in assay [1] (first compound 0.001 µM) is 0.881; in assay [1] (first compound 0.003162 µM) it was 0.834; in assay [1] (first compound 0.01 µM), 0.727; in assay [1] (first compound 0.03162 µM), 0.651; in assay [1] (first compound 0.1 µM), 0.443; in assay [2] (first compound 0.001 µM) it was 0.325. Also, the relative viability in assay [2] (first compound 0.003162 µM) stood at 0.314; in assay [2] (first compound 0.01 µM), 0.324; in assay [2] (first compound 0.03162 µM), 0.26; in assay [2] (first compound 0.1 µM), 0.138; in assay [3] (first compound 0.001 µM), 0.66; in assay [3] (first compound 0.003162 µM), 0.558. Further, the relative viability in assay [3] (first compound 0.01 µM) came to 0.575; in assay [3] (first compound 0.03162 µM) it was 0.534; in assay [3] (first compound 0.1 µM), 0.215; in assay [4] (first compound 0.04 µM), 0.935; in assay [4] (first compound 0.1265 µM) it was 0.773; in assay [4] (first compound 0.4 µM), 0.559. Also, the values for the relative viability in assay [4] (first compound 1.265 µM) and in assay [4] (first compound 4 µM) were 0.382 and 0.372, respectively.
